The experiment concerns bacteria/yeast and mold. Briefly: Antimicrobial Preservation Effectiveness Test (micro robustness), double challenge test. It counts as cell-based. The following applies: for microbial control: preservative in mouthwash formulation, separately or in combination. The protocol: The Antimicrobial Preservation Effectiveness Test is used to determine the antimicrobial preservation effectiveness of water-based product formulations by means of a double challenge test. Products are developed to withstand microbial challenges introduced by normal consumer use. The test is run on an aged sample (13 weeks, 40° C.). The test uses two pools of microorganisms: bacteria/yeast and mold. The product is challenged at a 1% level at day 0 and at day 7. Reduction of the inoculum is monitored over a 28 day period. The following are the acceptance criteria for mouth wash formulas. • Bacteria and Yeast must show a 99.9% reduction (3 logs) of the bacterial inoculum as determined by plate count on day 7 following each inoculation. No increase after day 7 of the second inoculation and for the remainder of the test within normal variation of the data. • Mold must show a 90.0% reduction (1 log) of the mold inoculum as determined by the plate count on day 14 following the second inoculation (day 21). No increase from day 14 to day 21 of the second inoculation of the test within normal variation of the data.

Structures are written as SMILES.

Consider `OCc1ccccc1` [Benzyl alcohol, benzyl alcohol], for which the microbial control result is given as “acceptable microbial control”.
Regarding `CCCCCCCC(=O)OCC(O)CO` (stereo not shown) [Lexgard/gmcy, glycerol monocaprylate], the microbial control entry is “acceptable microbial control”.
`Cn1sccc1=O` [MIT, methylisothiazolinone]: the microbial control entry was “acceptable microbial control”. The antimicrobial efficacy entry (amount reduced to 0.001%) is “retaining antimicrobial efficacy”.

These data come from patent US20130230469A1, “Oral Care Product and Methods of Use and Manufacture Thereof” (COLGATE-PALMOLIVE COMPANY, priority 2010, published 2013).
